Measurements: patent publication US10407422B2, “Triazolopyridine inhibitors of myeloperoxidase” (priority 2015, dated 2019)

Tests used:
[1] = target: T1, myeloperoxidase (MPO) (Homo sapiens (Human), UniProt P05164); test: MPO chlorination assay (APF assay); assay type: biochemical; conditions: potency range class
Method: [formula] where A=minimal Y value (activity level of inhibited sample), B=maximal Y value (activity level of uninhibited sample), C=Log IC50, D=Hill Slope, x=concentration of inhibitor. MPO Chlorination Assay (APF Assay) MPO chlorination activity was measured in 100 mM KPi (pH 7.4) by utilizing the non-fluorescent reagent Aminophenyl fluorescein (APF, Invitrogen Cat. #A36003). APF is cleaved by (—OCl) to yield the fluorescent compound fluorescein. Reactions were carried out in 50 μL total volume by adding a 25 μL mixture of 200 pM myeloperoxidase and 120 mM NaCl to 100 nL inhibitor in 100% DMSO in a 384 well, non-binding surface clear bottom plate (Corning #3655). Enzyme, inhibitor, and chloride were preincubated for ten minutes at room temperature. After the ten minute preincubation, 25 μL of an APF mixture containing […], 120 mM NaCl and 10 μM H2O2 was added to the plate using the internal dispensing system of a Hammatsu FDSS 6000. Kinetic determinations were carried out immediately on the FDSS 6000 (3 minute kinetic read, 1 read every second, ex: 485 nm, em: 535 nm). IC50 values for inhibitors were calculated by taking the slope of the linear portion of the kinetic measurement (20 seconds to ˜80-120 secs). IC50 values were calculated by determining the slope of the linear portion of the kinetic trace […], and using that calculated slope to determine % inhibition occurring at each concentration of inhibitor using the following equation: [formula] where A=minimal Y value (activity level of inhibited sample), B=maximal Y value (activity level of uninhibited sample), C=Log IC50, D=Hill Slope, x=concentration of inhibitor. EPX Bromination Assay

[2] = target: T1, myeloperoxidase (MPO); test: MPO peroxidation assay (Amplex Red assay); assay type: biochemical; conditions: potency range class
Method: MPO Peroxidation Assay (Amplex Red Assay) MPO peroxidation activity was measured in 100 mM KPi (pH 7.4) by utilizing the non-fluorescent reagent Amplex Red (Invitrogen Cat. #A12222) which can be oxidized to the highly fluorescent resorufin. Amplex Red is oxidized by the peroxidase action of MPO to resorufin. Reactions were carried out in 50 μL total volume by adding a 25 μL mixture of 200 pM myeloperoxidase and 40 nM H2O2(Sigma #349887) to 100 nL inhibitor in 100% DMSO in a 384 well Perkin Elmer Optiplate. Enzyme and compound were preincubated for ten minutes at room temperature. After the ten minute preincubation, 25 μL of an Amplex Red mixture containing 200 μM Amplex Red and 10 mM H2O2 was added to the plate. Kinetic determinations were carried out immediately on a Perkin Elmer Envision (15 minute kinetic read, Ex: 535 nm, Em: 590 nm). IC50 values were calculated by determining the slope of the linear portion of the kinetic trace (180-540 secs), and using that calculated slope to determine % inhibition occurring at each concentration of inhibitor using the following equation: [formula] where A=minimal Y value (activity level of inhibited sample), B=maximal Y value (activity level of uninhibited sample), C=Log IC50, D=Hill Slope, x=concentration of inhibitor. MPO Chlorination Assay (APF Assay)

T1 sequence (P05164 49-745): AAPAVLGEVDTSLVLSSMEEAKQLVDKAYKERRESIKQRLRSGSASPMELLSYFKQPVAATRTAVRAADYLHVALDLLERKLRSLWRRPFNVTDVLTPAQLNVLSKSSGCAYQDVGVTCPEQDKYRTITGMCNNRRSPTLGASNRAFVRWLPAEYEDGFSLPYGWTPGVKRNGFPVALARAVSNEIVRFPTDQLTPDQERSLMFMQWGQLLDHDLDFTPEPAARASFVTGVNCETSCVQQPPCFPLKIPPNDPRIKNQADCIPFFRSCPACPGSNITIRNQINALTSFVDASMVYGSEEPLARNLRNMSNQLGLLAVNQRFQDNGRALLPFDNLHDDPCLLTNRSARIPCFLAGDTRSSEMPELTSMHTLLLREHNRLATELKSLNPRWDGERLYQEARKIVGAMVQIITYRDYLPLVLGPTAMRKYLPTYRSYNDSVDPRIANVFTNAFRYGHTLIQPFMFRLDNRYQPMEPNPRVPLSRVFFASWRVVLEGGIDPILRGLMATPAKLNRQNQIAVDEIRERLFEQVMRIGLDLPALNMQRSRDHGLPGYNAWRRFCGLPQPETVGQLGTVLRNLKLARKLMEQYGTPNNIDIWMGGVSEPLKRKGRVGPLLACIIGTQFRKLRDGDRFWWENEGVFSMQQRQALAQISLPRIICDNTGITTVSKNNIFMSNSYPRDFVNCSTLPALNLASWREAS

| Compound | IC50 [1] [nM] | IC50 [2] [nM] |
| --- | --- | --- |
| COc1ccc(CN2CCc3ccc(Cn4cc(Cc5cc(N)nc6[nH]nnc56)cn4)cc3C2=O)cc1 [Example 287, 7-{[4-({5-Amino-3H-[1,2,3]triazolo[4,5-b]pyridin-7-yl}methyl)-1H-pyrazol-1-yl]methyl}-2-[(4-methoxyphenyl)methyl]-1,2,3,4-tetrahydroisoquinolin-1-one] | 1000 to 10000 | 1 to 100 |
| Nc1cc(Cc2cnn(Cc3cccc(N4CCNC(C(F)(F)F)C4)c3)c2)c2nn[nH]c2n1 (centres unmarked) [Example 222, 7-{[1-({3-[3-(Trifluoromethyl)piperazin-1-yl]phenyl}methyl)-1H-pyrazol-4-yl]methyl}-3H-[1,2,3]triazolo[4,5-b]pyridin-5-amine] | 101 to 999 | 101 to 999 |
| Nc1cc(Cn2nnc(-c3ccccc3)n2)c2nn[nH]c2n1 [Example 169, 7-[(5-Phenyl-2H-1,2,3,4-tetrazol-2-yl)methyl]-3H-[1,2,3]triazolo[4,5-b]pyridin-5-amine] | 101 to 999 | 101 to 999 |
| Nc1cc(Cc2cnn(Cc3ccc(CO)cc3)c2)c2nn[nH]c2n1 [Example 64, (4-((4-((5-Amino-3H-[1,2,3]triazolo[4,5-b]pyridin-7-yl)methyl)-1H-pyrazol-1-yl)methyl)phenyl)methanol] | 101 to 999 | 1 to 100 |
| Nc1cc(Cc2cnn(Cc3ccc(C(=O)O)cc3)c2)c2nn[nH]c2n1 [Example 46, 4-((4-((5-Amino-3H-[1,2,3]triazolo[4,5-b]pyridin-7-yl)methyl)-1H-pyrazol-1-yl)methyl)benzoic acid] | 1000 to 10000 | 1000 to 10000 |
| Cn1nc(Cn2cc(Cc3cc(N)nc4[nH]nnc34)cn2)c2ccccc21 [Example 137, 7-({1-[(1-Methyl-1H-indazol-3-yl)methyl]-1H-pyrazol-4-yl}methyl)-3H-[1,2,3]triazolo[4,5-b]pyridin-5-amine] | 101 to 999 | 1 to 100 |
| Nc1cc(Cc2cnn(C[C@@H]3C[C@H](Oc4ccc(F)cc4)CN3)c2)c2nn[nH]c2n1 [Example 280, 7-[(1-{[(2S,4S)-4-(4-Fluorophenoxy)pyrrolidin-2-yl]methyl}-1H-pyrazol-4-yl)methyl]-3H-[1,2,3]triazolo[4,5-b]pyridin-5-amine] | 101 to 999 | 1 to 100 |
| Nc1cc(Cc2cnn(C(CCCO)c3ccccc3)c2)c2nn[nH]c2n1 (centres unmarked) [Example 146, 4-[4-({5-Amino-3H-[1,2,3]triazolo[4,5-b]pyridin-7-yl}methyl)-1H-pyrazol-1-yl]-4-phenylbutan-1-ol] | 101 to 999 | 101 to 999 |
| Nc1cc(Cc2cn(Cc3ccccc3)nc2C(F)(F)F)c2nn[nH]c2n1 [Example 283, 7-{[1-Benzyl-3-(trifluoromethyl)-1H-pyrazol-4-yl]methyl}-3H-[1,2,3]triazolo[4,5-b]pyridin-5-amine] | 101 to 999 | 1000 to 10000 |
| N#Cc1ccc(Cn2cc(Cc3cc(N)nc4[nH]nnc34)cn2)cc1F [Example 272, 4-{[4-({5-Amino-3H-[1,2,3]triazolo[4,5-b]pyridin-7-yl}methyl)-1H-pyrazol-1-yl]methyl}-2-fluorobenzonitrile] | 101 to 999 | 1 to 100 |
| Nc1cc(Cc2cnn(Cc3cccc(-c4ccc(OC(F)(F)F)cc4)c3)c2)c2nn[nH]c2n1 [Example 155, 7-{[1-({3-[4-(Trifluoromethoxy)phenyl]phenyl}methyl)-1H-pyrazol-4-yl]methyl}-3H-[1,2,3]triazolo[4,5-b]pyridin-5-amine] | 101 to 999 | 101 to 999 |

Other lines, results leading:

| IC50 [1] [nM] | IC50 [2] [nM] | Compound |
| --- | --- | --- |
| 101 to 999 | 1 to 100 | Cc1cnc(CNC(=O)c2ccc(Cn3cc(Cc4cc(N)nc5[nH]nnc45)cn3)cc2)cn1 [Example 91, 4-{[4-({5-Amino-3H-[1,2,3]triazolo[4,5-b]pyridin-7-yl}methyl)-1H-pyrazol-1-yl]methyl}-N-[(5-methylpyrazin-2-yl)methyl]benzamide] |
| 101 to 999 | 101 to 999 | Nc1cc(Cc2cn(Cc3cccc(C4CCNCC4)c3)nc2C(F)F)c2nn[nH]c2n1 [Example 286, 7-{[3-(Difluoromethyl)-1-{[3-(piperidin-4-yl)phenyl]methyl}-1H-pyrazol-4-yl]methyl}-3H-[1,2,3]triazolo[4,5-b]pyridin-5-amine] |
| 101 to 999 | 1 to 100 | Nc1cc(Cc2cnn(Cc3ccc(OC(F)F)cc3)c2)c2nn[nH]c2n1 [Example 104, 7-((1-(4-(Difluoromethoxy)benzyl)-1H-pyrazol-4-yl)methyl)-3H-[1,2,3]triazolo[4,5-b]pyridin-5-amine] |
| 101 to 999 | 1 to 100 | Nc1cc(Cc2cnn(Cc3cccc([C@@H]4CNC(=O)C4)c3)c2)c2nn[nH]c2n1 [Example 189, (R)-4-(3-((4-((5-Amino-3H-[1,2,3]triazolo[4,5-b]pyridin-7-yl)methyl)-1H-pyrazol-1-yl)methyl)phenyl)pyrrolidin-2-one] |
| 101 to 999 | 1 to 100 | Nc1cc(Cc2cnn(Cc3ccc(C(=O)NCc4ccccn4)cc3)c2)c2nn[nH]c2n1 [Example 80, 4-{[4-({5-Amino-3H-[1,2,3]triazolo[4,5-b]pyridin-7-yl}methyl)-1H-pyrazol-1-yl]methyl}-N-(pyridin-2-ylmethyl)benzamide] |
| 101 to 999 | 1 to 100 | Nc1cc(Cc2cnn(Cc3ccc4cc(O)ccc4c3)c2)c2nn[nH]c2n1 [Example 68, 6-((4-((5-Amino-3H-[1,2,3]triazolo[4,5-b]pyridin-7-yl)methyl)-1H-pyrazol-1-yl)methyl)naphthalen-2-ol] |
| 101 to 999 | 1 to 100 | CN(Cc1ncc[nH]1)C(=O)c1ccc(Cn2cc(Cc3cc(N)nc4[nH]nnc34)cn2)cc1 [Example 82, 4-{[4-({5-Amino-3H-[1,2,3]triazolo[4,5-b]pyridin-7-yl}methyl)-1H-pyrazol-1-yl]methyl}-N-(1H-imidazol-2-ylmethyl)-N-methylbenzamide] |
| 101 to 999 | 1 to 100 | CNc1nc2ccc(Cn3cc(Cc4cc(N)nc5[nH]nnc45)cn3)cc2s1 [Example 186, 6-{[4-({5-Amino-3H-[1,2,3]triazolo[4,5-b]pyridin-7-yl}methyl)-1H-pyrazol-1-yl]methyl}-N-methyl-1,3-benzothiazol-2-amine] |
| 101 to 999 | 1 to 100 | Nc1cc(Cc2cnn(Cc3ccc4c(c3)OCO4)c2)c2nn[nH]c2n1 [Example 150, 7-{[1-(2H-1,3-Benzodioxol-5-ylmethyl)-1H-pyrazol-4-yl]methyl}-3H-[1,2,3]triazolo[4,5-b]pyridin-5-amine] |
| 1 to 100 | 1 to 100 | Nc1cc(Cc2cnn(Cc3cccc(C4CCNCC4F)c3)c2)c2nn[nH]c2n1 (centres unmarked) [Example 216, 7-[(1-{[3-(3-Fluoropiperidin-4-yl)phenyl]methyl}-1H-pyrazol-4-yl)methyl]-3H-[1,2,3]triazolo[4,5-b]pyridin-5-amine] |
| 1 to 100 | 1 to 100 | Nc1cc(Cc2cnn(Cc3ccc4ccccc4c3)c2)c2nn[nH]c2n1 [Example 42, 7-((1-(Naphthalen-2-ylmethyl)-1H-pyrazol-4-yl)methyl)-3H-[1,2,3]triazolo[4,5-b]pyridin-5-amine] |
| 1 to 100 | 1 to 100 | Nc1cc(Cc2cnn(CC3CCc4ccccc4C3)c2)c2nn[nH]c2n1 (centres unmarked) [Example 136, 7-{[1-(1,2,3,4-Tetrahydronaphthalen-2-ylmethyl)-1H-pyrazol-4-yl]methyl}-3H-[1,2,3]triazolo[4,5-b]pyridin-5-amine] |
| 1 to 100 | 1 to 100 | Nc1cc(Cc2cnn(Cc3cccc(-c4ccccn4)c3)c2)c2nn[nH]c2n1 [Example 133, 7-[(1-{[3-(Pyridin-2-yl)phenyl]methyl}-1H-pyrazol-4-yl)methyl]-3H-[1,2,3]triazolo[4,5-b]pyridin-5-amine] |
| 1 to 100 | 1 to 100 | Nc1cc(Cc2cnn(Cc3cc(F)cc([C@@H]4CCNC4)c3)c2)c2nn[nH]c2n1 [Example 195, 7-{[1-({3-Fluoro-5-[(3S)-pyrrolidin-3-yl]phenyl}methyl)-1H-pyrazol-4-yl]methyl}-3H-[1,2,3]triazolo[4,5-b]pyridin-5-amine] |
